Data from US3992371A, “Penicillins substituted with heterocyclic and substituted phenyl groups” (Sumitomo Chemical Company, Limited, priority 1973, dated 1976).

What was measured:
[1] = system: Pseudomonas aeruginosa 104; assay: Minimal inhibitory concentration, agar dilution method; format: cell-based
Excerpt: When determined according to the agar dilution method, the penicillins (I) afford the minimal inhibitory concentrations against test microorganisms as shown in Table 2.

[2] = system: Pseudomonas; details: background statement; cited from earlier work
[3] = system: gram-positive and gram-negative bacteria; details: background statement; cited from earlier work

| Structure (SMILES) | MIC [1] [µg/mL] | antimicrobial activity against Pseudomonas [2] | inhibition of the growth of gram-positive and gram-negative bacteria [3] |
| --- | --- | --- | --- |
| CC1(C)S[C@@H]2C(NC(=O)C(N)c3ccccc3)C(=O)N2[C@H]1C(=O)O (stereo partly drawn) [Ampicillin, 6-(α-amino-phenylacetamido)penicillanic acid] | > 500 | do not exert any appreciable antimicrobial activity against Pseudomonas | inhibit the growth of various gram-positive and gram-negative bacteria |
| CC1(C)S[C@@H]2[C@H](NC(=O)[C@H](N)C3=CCC=CC3)C(=O)N2[C@H]1C(=O)O [Epicillin] |  | do not exert any appreciable antimicrobial activity against Pseudomonas | inhibit the growth of various gram-positive and gram-negative bacteria |
| CC1(C)S[C@@H]2C(NC(=O)C(N)c3ccc(O)cc3)C(=O)N2[C@H]1C(=O)O (stereo partly drawn) [Amoxycillin, 6-(α-amino-p-hydroxyphenylacetamido)penicillanic acid] |  | do not exert any appreciable antimicrobial activity against Pseudomonas | inhibit the growth of various gram-positive and gram-negative bacteria |
